In PubChem BioAssay (NCI):
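48-hour exposure; five concentrations; linearly interpolated endpoints. TGI denotes the concentration required for complete inhibition of growth.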

What was measured:
Assay in all cases: DTP human tumour cell line panel, 48 h
[1] = system: EKVX NSCLC
[2] = system: HCT-15 colon
[3] = system: HS 578T breast
[4] = system: MALME-3M melanoma
[5] = system: MDA-N
[6] = system: MOLT-4 leukemia
[7] = system: NCI-H23 lung
[8] = system: NCI-H522 lung
[9] = system: OVCAR-4 ovarian
[10] = system: OVCAR-5 ovarian
[11] = system: RPMI-8226 leukemia
[12] = system: SF-539 CNS
[13] = system: SK-MEL-28 melanoma
[14] = system: SNB-19 CNS
[15] = system: SW-620 colon
[16] = system: T-47D breast
[17] = system: TK-10 renal
[18] = system: HL-60(TB) leukemia
[19] = system: MCF7 breast
[20] = system: OVCAR-8 ovarian

| SMILES | TGI [1] | TGI [2] | TGI [3] | TGI [4] | TGI [5] | TGI [6] | TGI [7] | TGI [8] | TGI [9] | TGI [10] | TGI [11] | TGI [12] | TGI [13] | TGI [14] | TGI [15] | TGI [16] | TGI [17] | TGI [18] | TGI [19] | TGI [20] |
| --- | --- | --- | --- | --- | --- | --- | --- | --- | --- | --- | --- | --- | --- | --- | --- | --- | --- | --- | --- | --- |
| CC[C@]12C=CCN3CCC4(c5cc([C@@]6(C(=O)OC)CC7CN(CCc8c6[nH]c6ccccc86)C[C@@H]6CCCC[C@H]76)c(OC)cc5N(C)C4[C@](O)(C(=O)OC)C1OC(C)=O)[C@@H]32 (some centres undefined) | 22.8 µM | 12.5 µM | < 0.01 µM | 4.95 µM | < 0.01 µM | > 100 µM | < 0.01 µM | < 0.01 µM | 19.3 µM | 8.83 µM | 32.1 µM | < 0.01 µM | 17.1 µM | 18.1 µM | 16 µM | 38.5 µM | 21.8 µM | – | – | – |
| Cc1cc(C)nc(NS(=O)(=O)c2ccc(Nc3c4ccccc4nc4c(C(=O)NC(CO)(CO)CO)cccc34)cc2)n1 | > 100 µM | > 100 µM | > 100 µM | – | 68.8 µM | > 100 µM | > 100 µM | 31.7 µM | > 100 µM | 88.4 µM | 91.8 µM | – | 62.5 µM | > 100 µM | > 100 µM | > 100 µM | 68.9 µM | 97.9 µM | > 100 µM | > 100 µM |
| O=C1C2CCCCC2C(=O)N1n1c(-c2ccccc2)n[nH]c1=O (centres undefined) | > 100 µM | > 100 µM | > 100 µM | > 100 µM | > 100 µM | > 100 µM | > 100 µM | > 100 µM | > 100 µM | > 100 µM | > 100 µM | > 100 µM | – | > 100 µM | > 100 µM | > 100 µM | > 100 µM | – | > 100 µM | > 100 µM |
| O=[N+]([O-])c1ccc(N/N=C2/CC3=C2CCCCCCCCCC3)c([N+](=O)[O-])c1 | > 100 µM | > 100 µM | > 100 µM | > 100 µM | > 100 µM | > 100 µM | > 100 µM | > 100 µM | > 100 µM | > 100 µM | > 100 µM | – | > 100 µM | > 100 µM | > 100 µM | > 100 µM | > 100 µM | – | > 100 µM | > 100 µM |
| CON(C)C(=O)[C@H]1C[C@@]1(C)CO | > 100 µM | > 100 µM | > 100 µM | > 100 µM | > 100 µM | > 100 µM | > 100 µM | – | > 100 µM | > 100 µM | – | – | > 100 µM | > 100 µM | > 100 µM | > 100 µM | > 100 µM | – | > 100 µM | > 100 µM |
| COC(=O)c1cc(=O)n(-c2ccc3nn(C)nc3c2)cc1C(=O)OC | > 100 µM | > 100 µM | > 100 µM | > 100 µM | > 100 µM | > 100 µM | > 100 µM | > 100 µM | > 100 µM | > 100 µM | > 100 µM | > 100 µM | > 100 µM | > 100 µM | > 100 µM | > 100 µM | > 100 µM | – | > 100 µM | > 100 µM |
| CC(O)CN1c2ccccc2Sc2ccccc21 (centres undefined) | > 100 µM | > 100 µM | > 100 µM | > 100 µM | > 100 µM | > 100 µM | > 100 µM | > 100 µM | > 100 µM | > 100 µM | – | > 100 µM | > 100 µM | > 100 µM | > 100 µM | > 100 µM | > 100 µM | – | > 100 µM | > 100 µM |
| COc1ccc2[nH]c3c(c2c1)CC(=O)N1CCCC(CC3O)C1 (centres undefined) | – | > 100 µM | > 100 µM | > 100 µM | > 100 µM | – | > 100 µM | > 100 µM | > 100 µM | – | > 100 µM | > 100 µM | > 100 µM | > 100 µM | > 100 µM | > 100 µM | > 100 µM | – | > 100 µM | > 100 µM |
| O=C(Cc1ccccc1)NN1C(=O)/C(=C\c2cccc([N+](=O)[O-])c2)SC1=Nc1ccccc1 | > 100 µM | > 100 µM | > 100 µM | – | > 100 µM | > 100 µM | > 100 µM | – | > 100 µM | > 100 µM | > 100 µM | > 100 µM | > 100 µM | > 100 µM | > 100 µM | > 100 µM | > 100 µM | – | > 100 µM | > 100 µM |
| CC(=O)OCC1OC(N2C(c3ccccc3)=CC(c3ccco3)C(C#N)=C2S)C(OC(C)=O)C(OC(C)=O)C1OC(C)=O (centres undefined) | > 52.1 µM | > 100 µM | 7.61 µM | 13.6 µM | > 53.9 µM | > 75.4 µM | 23.7 µM | > 39.8 µM | 9.16 µM | 22 µM | > 45 µM | 5.35 µM | > 75.5 µM | 38.7 µM | 4.2 µM | > 67.9 µM | 37.5 µM | – | > 82.4 µM | 12.1 µM |
| O=c1cc(NNCc2ccccc2)[nH]c(=O)[nH]1 | > 100 µM | > 100 µM | > 100 µM | > 100 µM | > 100 µM | > 100 µM | > 100 µM | – | > 100 µM | > 100 µM | > 100 µM | > 100 µM | > 100 µM | > 100 µM | > 100 µM | 67 µM | > 100 µM | > 100 µM | > 100 µM | > 100 µM |
| CC(C)CCNC(=O)C(CC(C)C)NC(=O)[C@H]1O[C@@H]1C(=O)O (some centres undefined) | > 100 µM | > 100 µM | > 100 µM | > 100 µM | > 100 µM | > 100 µM | > 100 µM | > 100 µM | > 100 µM | > 100 µM | – | > 100 µM | > 100 µM | > 100 µM | > 100 µM | > 100 µM | – | – | > 100 µM | > 100 µM |
| CSc1nn(C)cc2ncnc1-2 | > 100 µM | > 100 µM | > 100 µM | – | > 100 µM | > 100 µM | > 100 µM | – | – | > 100 µM | > 100 µM | > 100 µM | > 100 µM | > 100 µM | > 100 µM | > 100 µM | > 100 µM | > 100 µM | > 100 µM | > 100 µM |
